How the values were obtained:
[1] = β-carotene bleaching test (protection from lipid peroxidation)
Protocol: (§1) The β-carotene bleaching test was performed to investigate the ability of the extract to protect from lipid peroxidation. All test protocols were previously reported. Briefly, in the DPPH test, a solution of DPPH was mixed with extract at different concentrations (10-1000 μg/mL). After that, the mixture was incubated at room temperature for 30 min. The absorbance was read at 517 nm. In the ABTS test, a solution of ABTS radical cation was prepared and, after 12 h, was diluted with ethanol to reach an absorbance of 0.70 at 734 nm. The stabilized ABTS^+ solution was added to extracts at different concentrations (1-400 μg/mL), and the mixture was left to react at room temperature for 6 min. After that, the absorbance was read at 734 nm. Ascorbic acid was employed as a positive control in both the ABTS and DPPH assays. In the FRAP test, a mixture of tripyridyltriazine (TPTZ) solution, FeCl3, and acetate buffer was added to the sample at a concentration of 2.5 mg/mL. After 30 min of incubation at room temperature, the absorbance was measured at 595 nm. Butylated hydroxytoluene (BHT) was used as a positive control. The protection from lipid peroxidation was studied by using the β-carotene bleaching test. […] The mixture was left to react for 30 and 60 min at 45 °C, and the absorbance was read at 470 nm. Propyl gallate was used as a positive control.

[2] = Ferric Reducing Ability Power (FRAP) test; conditions: at 2.5 mg/mL
Protocol: as §1

[3] = DPPH radical scavenging test; conditions: 30 min, room temperature
Protocol: as §1

[4] = ABTS radical scavenging test; conditions: 6 min, room temperature
Protocol: as §1

SMILES: CCCOC(=O)c1cc(O)c(O)c(O)c1 [Propyl gallate, propyl gallate]
- β-Carotene Bleaching Test IC50 ([1]; 30 min): 1.04 ± 0.04 µg/mL
- β-Carotene Bleaching Test IC50 ([1]; 60 min): 0.09 ± 0.00 µg/mL

SMILES: Cc1cc(C(C)(C)C)c(O)c(C(C)(C)C)c1 [BHT, butylated hydroxytoluene]
- FRAP Test [2]: 63.27 ± 4.35 μM Fe(II)/g

SMILES: O=C1O[C@H]([C@@H](O)CO)C(O)=C1O [Ascorbic acid, ascorbic acid]
- DPPH Test IC50 [3]: 5.0 ± 0.8 µg/mL
- ABTS Test IC50 [4]: 1.7 ± 0.06 µg/mL

— article PMC11173687, “Chemical Profile and Healthy Properties of Sicilian Diplotaxis harra subsp. crassifolia (Raf.) Maire” (Molecules, 2024)
